# Patent US10160986B2, “Chemoenzymatic synthesis of heparin and heparan sulfate analogs” (The Regents of the University of California, priority 2011, dated 2018)
# Assays:
# [1] = system: necrotizing enterocolitis in neonatal rats; experiment: Necrotizing enterocolitis neonatal rat model; type: in vivo, Sprague-Dawley rats; conditions: formula containing 300 μg/mL glycan; for mean ileum pathology score (0: healthy; 4: complete destruction): oral gavage twice daily, 96 hours, mean±standard deviation
# Description: Rat studies. The efficacy of the synthesized glycans against necrotizing enterocolitis was tested in the same neonatal rat model as previously described for DSLNT. Briefly, pregnant time-dated Sprague-Dawley rats were induced at term and immediately randomized into one of the different study groups. Animals in the dam-fed group (DF) remained with the dam. All other animals were separated from the dam, housed in a temperature- and humidity-controlled incubator and orally gavaged with a special rodent formula (0.2 mL) twice daily. All animals, dam-fed and gavaged, were exposed to 10 min of hypoxia (5% O2, 95% N2) thrice daily in a modular chamber. All animals were sacrificed 96 hours post-partum, and 0.5 cm of the terminal ileum prepared for H&E staining per standard protocols and scored blindly based on morphological changes that included epithelial sloughing, villus edema, infiltration of neutrophils, apoptosis of villus enterocytes, crypt hyperplasia and misaligned nuclei in the epithelium. If at least one pathology sign was observed, a score of 0.5-1.5 was assigned depending on severity. […] The maximum score of 4 was given in case of complete obliteration of the epithelium with or without intestinal perforation. Pathology scores were plotted for each animal and the mean calculated per group. Differences between the groups were calculated by 1 way ANOVA with Kruskal-Wallis test and Dunn's Multiple Comparison test. Significance was defined as a P value of less than 0.05.
# [2] = biological target: T1, human FGF-1 (Homo sapiens, UniProt P05230); experiment: Inhibition of FGF-1 binding to immobilized heparin-biotin; conditions: compound 1 mM; FGF 1 μM
# T1 construct: purchased PeproTech Inc (Rocky Hill, N.J.)
# T1 sequence (P05230 whole entry): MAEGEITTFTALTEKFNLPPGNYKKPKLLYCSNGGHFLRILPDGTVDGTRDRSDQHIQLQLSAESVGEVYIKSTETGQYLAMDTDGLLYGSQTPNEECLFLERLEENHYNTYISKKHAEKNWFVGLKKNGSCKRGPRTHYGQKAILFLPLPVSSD
# From the text: (§1) Materials. Recombinant human fibroblast growth factors FGF-1, FGF-2, FGF-4, and anti-human FGF-1, FGF-2, FGF-4 were purchased from PeproTech Inc (Rocky Hill, N.J.). Heparin-biotin was from Sigma (St. Louis, Mo.). Low molecular weight heparin (LMWH) was bought from AMS Biotechnology (Lake Forest, Calif.). Alexa Fluor® 488 goat anti-rabbit IgG (H+L) was from Invitrogen (Carlsbad, Calif.). 384-Well NeutrAvidin-coated plates for the sialidase assays were from Fisher Biotech.
# (§2) Methods. All assays were carried out in duplicate in 384-well NeutrAvidin coated plates. Heparin-biotin (20 μL, 2 μM) was added to each well and the plate was incubated at 4° C. for overnight. The plate was washed with 3 rounds of 1×PBS buffer containing 0.05% Tween-20 and blocked with 1% BSA (50 μL for each well) and incubated at r.t. for 30 min. After the plate was washed three times with 1×PBS buffer containing 0.05% Tween-20, each set of duplicate wells were added 20 μL of human FGF-1, FGF-2, or FGF-4 (1 μM) with or without premixing with LMWH (˜22 nM or 0.1 μM), monosaccharide, or oligosaccharides (100 μM or 1 mM) and the plate was incubate at r.t. for 1 hr. After washing three times with 1×PBS buffer containing 0.05% Tween-20, anti-human FGF-1, FGF-2 or FGF-4 (20 μL) was added and the plate was incubated at r.t. for 1 hr. After the plate was washed three times with 1×PBS buffer containing 0.05% Tween-20, Alexa Fluor® 488 goat anti-rabbit IgG (H+L) (20 μL) was added and the plate was incubated at r.t. for 1 hr. After washed three times with 1×PBS buffer containing 0.05% Tween-20 and once with water, the fluorescent signals of wells in the plate were measured using a microtiter plate reader.
# [3] = system: PmHS2; experiment: Donor substrate specificity of PmHS2 by HPLC (Example 1); type: biochemical, Pasteurella multocida; conditions: acceptor GlcAα2AA 1 mM, UDP-sugar 1 mM, MnCl2 10 mM, pH 6.5, 37° C.
# Description: (§3) pH profile by HPLC. Typical enzymatic assays were performed in a 10 μl reaction mixture containing a buffer (100 mM) with a pH in the range of 4.0-10.0, UDP-GlcNAc (1 mM), GlcAβ2AA (1 mM), MnCl2 (10 mM) and KfiA (9.0 μg) or PmHS2 (0.25 μg). Buffers used were: Na2HPO4/citric acid, pH 4.0; MES, pH 5.0-6.5; TrisHCl, pH 7.0-9.0; and CAPS, pH 10.0. Reactions were allowed to proceed for 30 min at 37° C. and were quenched by adding ice-cold 10% (v/v) acetonitrile to make 100-fold dilutions. The samples were then kept on ice until an aliquot of 8 μl was injected and analyzed by a Shimadzu LC-2010A system equipped with a membrane on-line degasser, a temperature control unit and a fluorescence detector. A reverse phase Premier C18 column (250 9 4.6 mm I.D., 5 μm particle size, Shimadzu) protected with a C18 guard column cartridge was used. The mobile phase was 25% (v/v) acetonitrile. The fluorescent compounds GlcAβ2AA and GlcNAcα1-4GlcAβ2AA were detected by excitation at 315 nm and emission at 400 nm.
# (§4) Substrate specificity of KfiA and PmHS2. All reactions were carried out in duplicate at 37° C. in MES (100 mM, pH 6.5) containing an UDP-GlcNAc or its derivatives (1 mM), […] (1 mM), MnCl2 (10 mM) and KfiA ([…] PmHS2 (2.5×10^−2 μg μl^−1). At 30 min, 4 h or 16 h, aliquots of reaction mixture were withdrawn and were quenched by adding ice-cold 10% (v/v) acetonitrile to make 100-fold dilutions. The assays were analyzed by HPLC.
# [4] = system: KfiA; experiment: Donor substrate specificity of KfiA by HPLC (Example 1); type: biochemical, E. coli; conditions: acceptor GlcAα2AA 1 mM, UDP-sugar 1 mM, MnCl2 10 mM, pH 6.5, 37° C.
# Description: as §3, §4
# [5] = system: PmHS2; experiment: Small-scale PmHS2 donor substrate test by TLC; type: biochemical, Pasteurella multocida; conditions: GlcAβ2AAMe 10 mM, donor 15 mM, MgCl2 10 mM, PmHS2 0.5 mg/mL, pH 7.5, 37° C., 12 hr
# Description: Prior to applying the one-pot three-enzyme system shown in FIG. 16 to the preparative-scale synthesis of the disaccharides, UDP-GlcNAc and derivatives F17-1-F17-12 were tested as donor substrates for PmHS2 in small-scale reaction containing Tris-HCl buffer (100 mM, pH 7.5), GlcAβ2AAMe (10 mM), UDP-GlcNAc or a derivative (15 mM), MgCl2 (10 mM), and PmHS2 (0.5 mg/mL). The reactions were carried out at 37° C. for 12 hr and analyzed by thin layer chromatography (TLC).
# [6] = system: His6-PmHS2; experiment: GlcNAcT donor substrate specificity of His6-PmHS2 (Example 12); type: biochemical, Pasteurella multocida; conditions: acceptor GlcAβ2AA 1 mM, UDP-sugar 1 mM, MnCl2 10 mM, PmHS2 1.1 μg μl^−1, 24 h, 37° C.
# Description: (§5) PmHS2, KfiA, and related fusion proteins were expressed, purified, and characterized as described in Example 1. Reactions with UDP-sugars were carried out in duplicate at 37° C. in MES (100 mM, pH 6.5) containing UDP-GlcNAc or one of its derivatives (1 mM), GlcAβ2AA (1 mM), MnCl2 (10 mM) and KfiA (2.8 μg μl^−1) or PmHS2 (1.1 μg μl^−1) for 24 h. The reaction mixtures were stopped by adding ice-cold 10% (v/v) acetonitrile to make 100-fold dilutions and the mixtures were analyzed by HPLC as described for the pH profile.
# (§6) Substrate specificity of the GlcNAcT activities of MBP-KfiA-his6 and his6-PmHS2. […] The reactions were easily analyzed by high performance liquid chromatography (HPLC) equipped with a fluorescence detector using an excitation wavelength of 315 nm and an emission wavelength of 400 nm to determine the ratio of the fluorescent disaccharide product formed and the fluorescent GlcAβ2AA acceptor.
# [7] = system: T2, MBP-KfiA-His6 (Escherichia coli); experiment: GlcNAcT donor substrate specificity of MBP-KfiA-His6 (Example 12); type: biochemical, E. coli; conditions: acceptor GlcAβ2AA 1 mM, UDP-sugar 1 mM, MnCl2 10 mM, KfiA 2.8 μg μl^−1, 24 h, 37° C.
# T2 construct: made in house; host or cells: E. coli BL21(DE3) co-expressing chaperone plasmid pGro7
# Description: as §5, §6
# [8] = biological target: T3, AtGlcAK (Arabidopsis thaliana, UniProt Q93ZC9, I297M); experiment: AtGlcAK substrate specificity by TLC and LC-MS; type: biochemical; conditions: sugar 10 mM, ATP 20 mM, AtGlcAK 22 μg, 37° C., 15 hr
# T3 construct: made in house; host or cells: E. coli BL21 (DE3)
# T3 sequence (Q93ZC9 other isoform, or with tags, fused parts or gaps I297M): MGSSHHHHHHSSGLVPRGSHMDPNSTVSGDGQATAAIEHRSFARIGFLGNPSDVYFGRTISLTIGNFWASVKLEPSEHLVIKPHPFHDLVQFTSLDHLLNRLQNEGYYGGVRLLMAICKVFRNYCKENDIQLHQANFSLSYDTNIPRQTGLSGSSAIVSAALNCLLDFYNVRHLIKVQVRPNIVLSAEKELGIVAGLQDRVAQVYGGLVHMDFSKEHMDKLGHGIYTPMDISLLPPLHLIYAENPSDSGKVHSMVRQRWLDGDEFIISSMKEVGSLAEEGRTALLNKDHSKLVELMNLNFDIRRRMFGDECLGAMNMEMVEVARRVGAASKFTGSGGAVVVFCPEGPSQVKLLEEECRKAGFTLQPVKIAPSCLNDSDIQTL
# Description: Substrates specificity assays by thin-layer chromatography (TLC). […] For visualizing compounds on TLC plate, p-anisaldehyde sugar stain was used.
# LC-MS assays for AtGlcAK reactions. The AtGlcAK reaction mixtures above were also analyzed by LC-MS. 2 μL of sample was diluted 100 fold and 8 μL was injected into a Waters spherisorb ODS-2 column (5 μm particles, 250 mm length, 4.6 mm I.D.). The sample was eluted with 30% acetonitrile in H2O with 0.1% formic acid and detected by ESI-MS in negative mode.
# [9] = biological target: T3, AtGlcAK; experiment: AtGlcAK substrate specificity CE assay; type: biochemical
# Description: Substrate specificity assays. […] The reactions were quenched and assayed with the same method as those for pH profile. All reactions were performed in duplicates.
# [10] = biological target: T4, human FGF-2 (Homo sapiens, UniProt P09038); experiment: Inhibition of FGF-2 binding to immobilized heparin-biotin; conditions: compound 1 mM; FGF 1 μM
# T4 construct: purchased PeproTech Inc (Rocky Hill, N.J.)
# T4 sequence (P09038 134-288): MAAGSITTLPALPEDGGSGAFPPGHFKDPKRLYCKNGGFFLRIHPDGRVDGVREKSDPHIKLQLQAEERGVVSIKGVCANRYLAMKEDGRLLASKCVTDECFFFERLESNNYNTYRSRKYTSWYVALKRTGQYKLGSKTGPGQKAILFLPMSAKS
# From the text: as §1, §2
compound,measurement,setting,value
Neu5Acα2-6Galβ1-4GlcNAcβ1-3(Neu5Acα2-6)Galβ1-4Glc [DSLNnT],NEC preventing effect in neonatal rats,[1],protects neonatal rats from necrotizing enterocolitis
same,mean ileum pathology score (0: healthy; 4: complete destruction),[1],1.29±0.54
GlcNAc6N3α1-4GlcAβ1-4GlcNH2α1-4GlcAβ2AA [Compound F24-13],FGF-1 (% inhibition),[2],62%
"O=C(CO)N[C@H]1[C@@H](OP(=O)(O)OP(=O)(O)OC[C@H]2O[C@@H](n3ccc(=O)[nH]c3=O)[C@H](O)[C@@H]2O)O[C@H](CO)[C@@H](O)[C@@H]1O [Compound F17-3, Uridine 5′-diphospho-2-hydroxyacetamido-2-deoxy-α-D-glucopyranoside]",donor substrate for PmHS2,[3],can use
same,donor substrate for KfiA,[4],can use
same,donor substrate for PmHS2,[5],tolerable donor substrates
"CC(=O)N[C@H]1[C@H](O[C@H]2[C@@H](O)[C@@H](CO)O[C@@H](O[C@H]3[C@H](O)[C@@H](O)C(O)O[C@@H]3CO)[C@@H]2O)O[C@H](CO)[C@@H](O[C@@H]2O[C@H](CO)[C@H](O)[C@H](O[C@]3(C(=O)O)C[C@H](O)[C@@H](NC(C)=O)[C@H]([C@H](O)[C@H](O)CO)O3)[C@H]2O)[C@@H]1O (some centres unmarked) [3′″-sLNnT, Neu5Acα2-3Galβ1-4GlcNAcβ1-3Galβ1-4Glc]",NEC preventing effect in neonatal rats,[1],lacking of NEC preventing effect
same,mean ileum pathology score (0: healthy; 4: complete destruction),[1],2.05±0.55
"[N-]=[N+]=NCC(=O)N[C@H]1[C@@H](OP(=O)(O)OP(=O)(O)OC[C@H]2O[C@@H](n3ccc(=O)[nH]c3=O)[C@H](O)[C@@H]2O)O[C@H](CO)[C@@H](O)[C@@H]1O [Compound F17-4, Uridine 5′-diphospho-2-azidoxyacetamido-2-deoxy-α-D-glucopyranoside]",donor substrate for PmHS2,[3],can use
same,donor substrate for KfiA,[4],can use
same,donor substrate for PmHS2,[5],tolerable donor substrates
"CC(=O)N[C@H]1[C@@H](OP(=O)(O)OP(=O)(O)OC[C@H]2O[C@@H](n3ccc(=O)[nH]c3=O)[C@H](O)[C@@H]2O)O[C@H](CO)[C@@H](O)[C@@H]1O [Compound F17-1, Uridine 5′-diphospho-2-acetamido-2-Deoxy-α-D-glucopyranoside]",donor substrate for PmHS2,[3],best substrate
same,donor substrate for KfiA,[4],best substrate
same,donor substrate for the α1-4GlcNAcT activity of His6-PmHS2,[6],suitable donor substrates for His6-PmHS2
same,donor substrate for PmHS2,[5],tolerable donor substrates
same,donor substrate for MBP-KfiA-His6,[7],can be used by MBP-KfiA-His6
"O=C(NC1C(OP(=O)(O)OP(=O)(O)OCC2OC(n3ccc(=O)[nH]c3=O)C(O)C2O)OC(CO)C(O)C1O)C(F)(F)F [Compound F17-2, Uridine 5′-diphospho-2-deoxy-2-trifluoroacetamido-α-D-glucopyranoside]",donor substrate for PmHS2,[3],can use
same,donor substrate for KfiA,[4],can use
same,donor substrate for PmHS2,[5],tolerable donor substrates
"O=C[C@@H](O)[C@H](O)[C@@H](O)[C@H](O)C(=O)O [IdoA, iduronic acid]",substrate for AtGlcAK (formation of sugar-1-phosphate),[8],acceptable substrates
"O=C[C@H](O)[C@@H](O)[C@@H](O)[C@H](O)C(=O)O [GalA, galacturonic acid]",substrate for AtGlcAK (formation of sugar-1-phosphate),[8],acceptable substrates
same,Percentage conversion of ATP,"[9]; High enzyme Conc. (2.1 μg in 20 μL, 60 min, 37° C.)",15.3%
same,Percentage conversion of ATP,"[9]; Low enzyme Conc. (412 ng in 20 μL, 15 min, 37° C.)",6.2%
GlcNAc6NSα1-4GlcAβ1-4GlcNSα1-4GlcAβ2AA [Compound F24-16],FGF-2 (% inhibition),[10],55%
same,FGF-1 (% inhibition),[2],58%
GlcAβ1-4GlcNH2α1-4GlcAβ2AA [Compound F24-11],FGF-1 (% inhibition),[2],76%
